Measured values as given in PMC5288202, “Simultaneous inhibition of Vps34 kinase would enhance PI3Kδ inhibitor cytotoxicity in the B-cell malignancies” (Oncotarget, 2016).

Columns and labels:
PI4KA = target: T1, PI4KA (Homo sapiens, UniProt P42356); assay: ADP-Glo biochemical assay; details: 50 μM ATP, read-out: IC50 against PI4KA
T1 construct: purchased Invitrogen

PI3Kα = target: T2, PI3Kα (Mus musculus, UniProt P42337); assay: PI3K isoforms cellular selectivity assay (AKT phosphorylation, NIH-3T3, PDGF-BB); assay type: cell-based; details: NIH-3T3 cells, PDGF-BB stimulation
T2 construct: endogenous in cells; host or cells: NIH-3T3 (ATCC)
Method: (§1) Cells were lysed and AKT phosphorylation was determined by Western Blotting. Intensity of the bands was determined using ImageJ 1.42q (NIH, USA) and normalized to total AKT (loading control).

PI3Kβ = target: T3, PI3Kβ (Mus musculus, UniProt Q8BTI9); assay: PI3K isoforms cellular selectivity assay (AKT phosphorylation, NIH-3T3, LPA); assay type: cell-based; details: NIH-3T3 cells, LPA stimulation
T3 construct: endogenous in cells; host or cells: NIH-3T3
Method: as §1

PI3Kδ [1] = target: T4, PI3Kδ (Homo sapiens, UniProt O00329); assay: PI3K isoforms cellular selectivity assay (AKT phosphorylation, Raji, anti-IgM); assay type: cell-based; details: Raji cells, anti-IgM stimulation
mTOR kinase = target: T5, mTOR kinase (Homo sapiens, UniProt P42345); assay: DiscoveRx's KinomeScan binding; details: read-out: % control number, mTOR
T5 construct: purchased DiscoveRx (KinomeScan platform)

[2] = tested on: LAMP1 localization in HeLa cells; assay: Immunofluorescence of LAMP1 localization; assay type: cell-based
Method: HeLa cells were treated with different concentrations of inhibitors for 16 hours. For all immunofluorescence experiments, cells were fixed in -20 °C methanol for 5 minutes or 3.7% (v/v) formaldehyde in phosphate-buffered saline (PBS) for 20 minutes. For LC3B staining, cells were fixed in -20 °C methanol. For EEA1 and LAMP1 staining, cells were fixed in PBS+ formaldehyde. Cells were then permeabilized with TBSTx (0.1% Triton X-100), blocked in AbDil (TBSTx + 2% BSA + 0.1% NaN3), and probed with primary and secondary antibodies diluted in AbDil. Cells were rinsed thoroughly with TBSTx and mounted by anti-fade prolong Gold with DAPI. Images were taken using a Leica DMI4000B fluorescent microscope. All experiments were repeated at least three times). […] Cells were lysed in lysis buffer. P62, LC3B, and GAPDH antibodies were used for immunoblotting.

HL-60 = assay: Anti-proliferative effect; assay type: cell-based; details: Homo sapiens, HL-60, read-out: GI50 HL-60
OCI-AML-2 [3] = assay: Anti-proliferative effect; assay type: cell-based; details: Homo sapiens, OCI-AML2, read-out: GI50 OCI-AML-2
SKM-1 = assay: Anti-proliferative effect; assay type: cell-based; details: Homo sapiens, SKM-1, read-out: GI50 SKM-1
HEL = assay: Anti-proliferative effect; assay type: cell-based; details: Homo sapiens, read-out: GI50 HEL
Ramos = assay: Anti-proliferative effect; assay type: cell-based; details: Homo sapiens, read-out: GI50 Ramos
MEC-1 = assay: Anti-proliferative effect; assay type: cell-based; details: Homo sapiens, MEC1; CLL
OCI-AML-2 [4] = assay: Colony formation (colonogenic assay); assay type: cell-based; details: Homo sapiens, OCI-AML2
primary CLL cells = assay: Growth of patient primary cells; assay type: cell-based; details: CLL cell, 72 hours, read-out: cell proliferation inhibited
Excerpt: Peripheral blood mononuclear cells (PBMCs) from individuals with CLL were isolated by density centrifugation through Ficoll and frozen for each subject. Those subjects with low white counts whose CLL cell purity was expected to be < 85% underwent B cell isolation using RosetteSep. The protocol was approved by the Dana-Farber Harvard Cancer Center Institutional Review Board and all subjects signed written informed consent prior to participation.

[5] = tested on: FLT3-ITD positive primary AML cells; assay: Growth of AML primagraft cells ex vivo; assay type: cell-based; details: 72 hours
Method: Mononuclear cells were isolated from AML patients. Mononuclear cells were isolated by density gradient centrifugation through Ficoll-Plaque Plus (Amersham Pharmacia Biotech AB, Uppsala, Sweden) at 2000 rpm for 30 minutes, followed by two washes in 1X PBS. Freeze-thawed cells were then cultured in liquid culture (DMEM, supplemented with 20% FBS). All blood and bone marrow samples from AML patients were obtained through written consent under approval of the Dana Farber Cancer Institute Institutional Review Board. The ethics committees approved the consent procedure.

[6] = tested on: PI3Kδ-mediated signaling in OCI-AML-2, OCI-AML-3, MV4-11 and MEC-2 cell lines; assay: PI3Kδ-mediated signaling pathway (immunoblotting); assay type: cell-based; details: all four cell lines
Excerpt: The following antibodies were purchased from Cell Signaling Technology: Akt(#4691), Phospho-Akt(Thr308)(#4056), Phospho-Akt(Ser473)(#4060), GAPDH, GSK-3β(#9315), Phospho-GSK-3β(#9323), FoxO1(#2880), Phospho-FoxO1 (Thr24)/FoxO3a(Thr32)/FoxO4(Thr28)(#2599), PRAS40(#2691), Phospho-PRAS40 (Thr246)(#2997), 4E-BP1(#9644), p70 S6K(#2708), Phospho-p70 S6K (Thr389)(#9234). SQSTM1/p62 (D5E2)(#8025), LC3B(#12513). PARP(#9532), Caspase-3(#9665), Phospho-p44/42 MAPK (Erk1/2) (Thr202/Tyr204)(#4377), p44/42 MAPK (Erk1/2) (#4695), Phospho-NF-ΚB P65 (Ser 536)(#3033), NF-ΚB P65(#4764). Lysophosphatidic Acid (#sc-201053, Santa Cruz), Recombinant Human PDGF-BB (#220-BB, R&D), Recombinant Human C5a (Peprotech, #300-70), goat anti-IgM (#5C07615, Meridian). LC3B antibody (#3868, CST). Tubulin antibody (#8035, Santa Cruz). EEA1 antibody (#610456, BD Bioscience) and LAMP1 antibody (#24170, Abcam). Secondary antibodies, Alexa488-anti-mouse, Alexa594-anti-rabbit and Prolong gold mounting medium with DAPI were purchased from Invitrogen.

OCI-AML-2 [7] = assay: Induction of apoptosis (PARP cleavage); assay type: cell-based; details: OCI-AML-2, evident at 3 μM to 10 μM
MEC-2 = assay: Induction of apoptosis (PARP cleavage); assay type: cell-based; details: MEC-2, evident at 3 μM to 10 μM
MV4-11 = assay: Cell cycle analysis; assay type: cell-based; details: MV4-11, 48 h treatment
PI3Kδ [8] = target: T4, PI3Kδ; assay: biochemical
Method: The activities of PI3Kα, PI3Kβ, PI3Kδ, PI3Kγ, PI3KC2α, PI3KC2β, Vps34, PI4Kα and PI4Kβ were determined by using ADP-Glo assay, a fluorescence-based immunoassay that measures kinase activity in terms of the amount of ADP produced. A kinase titration was performed to determine the concentration. The amount of recombinant kinases was optimized to keep the reaction velocity within the linear range, to obtain an adequate difference between the resulting signals of sample in/out the presence of enzyme. The optimized enzyme concentrations for evaluating the inhibitory activities of compounds were chosen as follows: 0.16 μg/ml, 6.0 μg/ml, 1.0 μg/ml, 5.0 μg/ml, 5.0 μg/ml, 10.0 μg/ml, 1.2 μg/ml, 1.2 μg/ml and 1.0 μg/ml for PI3Kα, PI3Kβ, PI3Kδ, PI3Kγ, PI3KC2α, PI3KC2β, Vps34, PI4Kα and PI4Kβ, respectively. The ATP concentration was optimized, 10 μM ATP for PI3Kα and PI3Kβ, and 50 μM ATP for detection of the other seven kinases. The PI3Kα, PI3Kβ, PI3Kδ, PI3Kγ, PI3KC2α, PI3KC2β kinase reactions were carried out in 10 μl volume in a 384-well plate in the kinase reaction buffer containing 50 mM Hepes pH 7.5, 3 mM MgCl2, 1 mM EGTA, 1 mM NaCl, 0.03% CHAPS and 2 mM DTT. […] 10 μl kinase detection reagent was dded and incubated for 30 min at room temperature, before the luminescence signal was read with an envision PerkinElmer plate reader.

T4 sequence (O00329 whole entry, canonical isoform): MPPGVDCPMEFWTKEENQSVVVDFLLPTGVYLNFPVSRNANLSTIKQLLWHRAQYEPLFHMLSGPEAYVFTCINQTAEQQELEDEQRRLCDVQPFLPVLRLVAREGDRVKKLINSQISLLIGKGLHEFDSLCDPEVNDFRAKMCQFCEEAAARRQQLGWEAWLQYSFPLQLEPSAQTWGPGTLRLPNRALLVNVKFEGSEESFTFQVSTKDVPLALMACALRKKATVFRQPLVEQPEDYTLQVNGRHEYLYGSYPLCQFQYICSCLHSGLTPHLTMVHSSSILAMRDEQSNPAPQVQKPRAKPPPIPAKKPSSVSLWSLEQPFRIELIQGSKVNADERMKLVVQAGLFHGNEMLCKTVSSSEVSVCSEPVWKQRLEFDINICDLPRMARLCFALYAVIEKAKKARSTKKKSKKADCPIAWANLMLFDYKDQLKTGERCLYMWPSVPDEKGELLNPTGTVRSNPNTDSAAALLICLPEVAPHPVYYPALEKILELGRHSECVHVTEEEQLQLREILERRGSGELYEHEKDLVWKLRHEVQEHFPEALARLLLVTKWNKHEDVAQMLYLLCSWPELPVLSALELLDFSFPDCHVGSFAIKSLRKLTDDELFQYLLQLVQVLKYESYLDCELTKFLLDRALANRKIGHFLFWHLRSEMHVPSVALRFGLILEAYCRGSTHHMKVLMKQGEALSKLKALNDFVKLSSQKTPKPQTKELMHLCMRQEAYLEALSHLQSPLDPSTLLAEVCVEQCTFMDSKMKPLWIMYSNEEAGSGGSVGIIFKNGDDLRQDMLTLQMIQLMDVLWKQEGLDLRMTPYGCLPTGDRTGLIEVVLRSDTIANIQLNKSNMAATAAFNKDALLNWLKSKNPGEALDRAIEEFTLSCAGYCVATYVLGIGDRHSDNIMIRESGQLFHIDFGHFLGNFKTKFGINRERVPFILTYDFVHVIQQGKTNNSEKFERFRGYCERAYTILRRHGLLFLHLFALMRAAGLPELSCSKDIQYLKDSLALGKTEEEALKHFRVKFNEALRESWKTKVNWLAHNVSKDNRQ
T4 sequence (P27986 whole entry partner, canonical isoform): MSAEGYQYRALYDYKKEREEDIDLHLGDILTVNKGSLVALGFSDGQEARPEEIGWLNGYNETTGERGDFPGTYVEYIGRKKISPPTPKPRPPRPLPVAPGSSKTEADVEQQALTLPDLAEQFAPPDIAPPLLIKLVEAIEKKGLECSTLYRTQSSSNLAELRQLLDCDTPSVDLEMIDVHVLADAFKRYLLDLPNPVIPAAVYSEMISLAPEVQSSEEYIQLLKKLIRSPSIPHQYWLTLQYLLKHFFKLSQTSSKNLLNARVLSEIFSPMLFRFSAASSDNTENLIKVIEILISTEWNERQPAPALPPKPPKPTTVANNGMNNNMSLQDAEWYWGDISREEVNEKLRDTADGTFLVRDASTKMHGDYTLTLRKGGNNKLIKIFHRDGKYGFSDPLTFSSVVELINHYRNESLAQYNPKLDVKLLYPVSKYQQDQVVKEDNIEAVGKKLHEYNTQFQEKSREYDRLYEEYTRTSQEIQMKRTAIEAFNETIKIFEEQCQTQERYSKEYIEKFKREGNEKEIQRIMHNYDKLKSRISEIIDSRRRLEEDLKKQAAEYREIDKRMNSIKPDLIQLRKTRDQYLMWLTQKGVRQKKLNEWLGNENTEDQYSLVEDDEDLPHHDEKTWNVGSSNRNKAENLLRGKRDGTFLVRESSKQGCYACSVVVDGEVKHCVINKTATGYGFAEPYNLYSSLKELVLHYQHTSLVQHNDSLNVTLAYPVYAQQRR
T1 sequence (P42356 whole entry): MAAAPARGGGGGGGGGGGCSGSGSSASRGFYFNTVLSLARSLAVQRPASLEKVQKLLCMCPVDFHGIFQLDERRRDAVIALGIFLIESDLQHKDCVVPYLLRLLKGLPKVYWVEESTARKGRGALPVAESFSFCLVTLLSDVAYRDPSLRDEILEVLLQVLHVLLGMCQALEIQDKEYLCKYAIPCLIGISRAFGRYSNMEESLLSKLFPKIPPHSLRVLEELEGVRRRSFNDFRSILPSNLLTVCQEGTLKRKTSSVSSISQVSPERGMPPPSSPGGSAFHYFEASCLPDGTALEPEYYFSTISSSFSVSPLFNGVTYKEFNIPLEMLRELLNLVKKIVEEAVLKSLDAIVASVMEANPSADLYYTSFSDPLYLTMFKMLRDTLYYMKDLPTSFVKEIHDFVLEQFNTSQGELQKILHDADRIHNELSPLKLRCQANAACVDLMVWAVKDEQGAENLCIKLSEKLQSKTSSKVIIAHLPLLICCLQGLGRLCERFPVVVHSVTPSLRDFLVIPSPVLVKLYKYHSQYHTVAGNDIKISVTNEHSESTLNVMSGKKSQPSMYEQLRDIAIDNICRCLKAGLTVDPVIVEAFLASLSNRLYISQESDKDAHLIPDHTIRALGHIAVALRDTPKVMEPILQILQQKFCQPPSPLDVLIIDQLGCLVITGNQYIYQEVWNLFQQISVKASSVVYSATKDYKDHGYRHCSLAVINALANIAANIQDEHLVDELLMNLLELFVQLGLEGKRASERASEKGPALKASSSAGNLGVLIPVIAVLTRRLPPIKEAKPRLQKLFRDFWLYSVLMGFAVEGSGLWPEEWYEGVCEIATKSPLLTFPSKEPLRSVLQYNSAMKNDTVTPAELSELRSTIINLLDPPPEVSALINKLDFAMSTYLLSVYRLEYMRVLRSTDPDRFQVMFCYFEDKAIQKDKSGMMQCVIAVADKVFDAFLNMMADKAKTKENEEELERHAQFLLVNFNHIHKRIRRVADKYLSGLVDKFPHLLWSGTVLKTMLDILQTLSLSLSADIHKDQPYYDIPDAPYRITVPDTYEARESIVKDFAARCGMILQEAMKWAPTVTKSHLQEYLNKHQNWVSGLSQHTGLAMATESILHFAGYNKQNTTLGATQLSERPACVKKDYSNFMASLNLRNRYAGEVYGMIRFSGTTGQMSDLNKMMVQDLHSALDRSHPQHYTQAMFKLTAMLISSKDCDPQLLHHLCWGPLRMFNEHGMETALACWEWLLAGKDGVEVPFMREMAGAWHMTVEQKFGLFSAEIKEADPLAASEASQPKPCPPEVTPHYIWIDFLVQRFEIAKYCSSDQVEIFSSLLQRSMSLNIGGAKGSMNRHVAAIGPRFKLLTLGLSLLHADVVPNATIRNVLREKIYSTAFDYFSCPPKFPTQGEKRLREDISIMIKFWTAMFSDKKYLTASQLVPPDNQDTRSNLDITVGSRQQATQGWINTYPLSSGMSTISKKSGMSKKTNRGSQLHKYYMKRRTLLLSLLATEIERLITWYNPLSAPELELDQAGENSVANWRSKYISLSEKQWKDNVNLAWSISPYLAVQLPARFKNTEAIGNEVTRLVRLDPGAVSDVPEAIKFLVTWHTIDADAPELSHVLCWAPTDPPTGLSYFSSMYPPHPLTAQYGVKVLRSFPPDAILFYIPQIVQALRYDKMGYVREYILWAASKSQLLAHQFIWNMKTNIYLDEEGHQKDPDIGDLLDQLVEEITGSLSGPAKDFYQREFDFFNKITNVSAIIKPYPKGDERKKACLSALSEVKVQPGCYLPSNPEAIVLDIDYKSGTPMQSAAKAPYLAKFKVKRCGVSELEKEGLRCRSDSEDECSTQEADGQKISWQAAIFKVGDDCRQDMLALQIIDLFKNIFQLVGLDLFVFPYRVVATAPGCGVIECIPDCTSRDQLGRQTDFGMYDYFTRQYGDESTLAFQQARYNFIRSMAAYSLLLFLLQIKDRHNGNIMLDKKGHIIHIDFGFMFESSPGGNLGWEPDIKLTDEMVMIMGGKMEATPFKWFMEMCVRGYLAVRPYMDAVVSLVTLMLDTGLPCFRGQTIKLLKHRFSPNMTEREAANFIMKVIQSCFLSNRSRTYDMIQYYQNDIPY

## Cc1nc(NC(=O)CN)sc1-c1cnc(Cl)c(NS(=O)(=O)c2ccc(C(C)(C)C)cc2)c1 [PI3KD/V-IN-01, 2-amino-N-(5-(5-(4-tert-butylphenylsulfonamido)-6-chloropyridin-3-yl)-4-methylthiazol-2-yl)acetamide]
PI4KA
  IC50: > 10000 nM
PI3Kα
  EC50: 2970 nM
PI3Kβ
  EC50: > 3000 nM
PI3Kδ [1]
  EC50: 11 nM
mTOR kinase
  remaining binding at 1 µM: 0%
[2]
  Effect on lysosome marker LAMP1 localization: affected
HL-60
  GI50: 2700 nM
OCI-AML-2 [3]
  GI50: 1000 nM
SKM-1
  GI50: 1000 nM
HEL
  GI50: > 10000 nM
Ramos
  GI50: 5400 nM
MEC-1
  GI50: > 10000 nM
OCI-AML-2 [4]
  EC50: 145 nM
Primary CLL cells
  inhibition at 1 µM: ~50%
[5]
  inhibition at 1 µM: > 85%
[6]
  Activity of GSK3β and NFκB: not affected
  Phosphorylation of 4EBP1: not inhibited
  effect on pAKT(T308, S473), pFOXO1, pPRAS40 and pS6K: inhibition of pAKT(T308, S473) and downstream pFOXO1, pPRAS40 and pS6K
OCI-AML-2 [7]
  induction of apoptosis: only a modest induction of apoptosis
MEC-2
  induction of apoptosis: only a modest induction of apoptosis
MV4-11
  cell cycle progression: arrested in the G0/G1 phase
PI3Kδ [8]
  IC50: 6 nM
